Values of other authors in PubChem BioAssay AID1259409 (Chemical Carcinogenesis Research Information System (CCRIS), 2018).

Tested on: rodent chemically induced tumor inhibition, incidence and multiplicity
Assay: CCRIS tumor inhibitor studies

O=P(O)(O)OC1C(OP(=O)(O)O)C(OP(=O)(O)O)C(OP(=O)(O)O)C(OP(=O)(O)O)C1OP(=O)(O)O (stereo not given)
tumour outcome (control, treated, inhibition, significance) (Carcinogen: 2,2'-DIHYDROXY-DI-N-PROPYLNITROSAMINE, 53609-64-6, N-ETHYL-N-HYDROXYETHYLNITROSAMINE, 13147-25-6, 3,2'-DIMETHYL-4-AMINO-, Carcinogen: 2,2'-DIHYDROXY-DI-N-PROPYLNITROSAMINE, 53609-64-6, N-ETHYL-N-HYDROXYETHYLNITROSAMINE, 13147-25-6, 3,2'-DIMETHYL-4-AMINO-, Dose [Inhibitor]: 0, 2% IN DIET FOR 32 WK BEGINNING 1 WK POST CARCINOGEN TREATMENT (STUDY DURATION: 36 WK), Route [Inhibitor]: ORAL, Species: RAT, Strain/Sex: F344/MALE, Target Tissue: Type of Lesion: LUNG: CARCINOMA, Dose [Carcinogen]: 1000 MG/KG BW DHPN TWICE, 1500 MG/KG BW EHEN TWICE, 75 MG/KG BW 3 TIMES ADMINISTERED OVER FIRST 3 WK, Promoter: NONE USED): 1/14 (7%), 3/12 (25%), -257%, not significant
tumour outcome (control, treated, inhibition, significance) (Carcinogen: 2,2'-DIHYDROXY-DI-N-PROPYLNITROSAMINE, 53609-64-6, N-ETHYL-N-HYDROXYETHYLNITROSAMINE, 13147-25-6, 3,2'-DIMETHYL-4-AMINO-, Carcinogen: 2,2'-DIHYDROXY-DI-N-PROPYLNITROSAMINE, 53609-64-6, N-ETHYL-N-HYDROXYETHYLNITROSAMINE, 13147-25-6, 3,2'-DIMETHYL-4-AMINO-, Dose [Inhibitor]: 0, 2% IN DIET FOR 32 WK BEGINNING 1 WK POST CARCINOGEN TREATMENT (STUDY DURATION: 36 WK), Route [Inhibitor]: ORAL, Species: RAT, Strain/Sex: F344/MALE, Target Tissue: Type of Lesion: THYROID GLAND: ADENOMA, Dose [Carcinogen]: 1000 MG/KG BW DHPN TWICE, 1500 MG/KG BW EHEN TWICE, 75 MG/KG BW 3 TIMES ADMINISTERED OVER FIRST 3 WK, Promoter: NONE USED): 3/14 (21%), 3/12 (25%), -19%, not significant
tumour outcome (control, treated, inhibition, significance) (Carcinogen: 2,2'-DIHYDROXY-DI-N-PROPYLNITROSAMINE, 53609-64-6, N-ETHYL-N-HYDROXYETHYLNITROSAMINE, 13147-25-6, 3,2'-DIMETHYL-4-AMINO-, Carcinogen: 2,2'-DIHYDROXY-DI-N-PROPYLNITROSAMINE, 53609-64-6, N-ETHYL-N-HYDROXYETHYLNITROSAMINE, 13147-25-6, 3,2'-DIMETHYL-4-AMINO-, Dose [Inhibitor]: 0, 2% IN DIET FOR 32 WK BEGINNING 1 WK POST CARCINOGEN TREATMENT (STUDY DURATION: 36 WK), Route [Inhibitor]: ORAL, Species: RAT, Strain/Sex: F344/MALE, Target Tissue: Type of Lesion: URINARY BLADDER: CARCINOMA, Dose [Carcinogen]: 1000 MG/KG BW DHPN TWICE, 1500 MG/KG BW EHEN TWICE, 75 MG/KG BW 3 TIMES ADMINISTERED OVER FIRST 3 WK, Promoter: NONE USED): 1/14 (7%), 2/12 (17%), -143%, not significant
outcome (Carcinogen: 2,2'-DIHYDROXY-DI-N-PROPYLNITROSAMINE, 53609-64-6, N-ETHYL-N-HYDROXYETHYLNITROSAMINE, 13147-25-6, 3,2'-DIMETHYL-4-AMINO-, Carcinogen: 2,2'-DIHYDROXY-DI-N-PROPYLNITROSAMINE, 53609-64-6, N-ETHYL-N-HYDROXYETHYLNITROSAMINE, 13147-25-6, 3,2'-DIMETHYL-4-AMINO-, Dose [Inhibitor]: 0, 2% IN DIET FOR 32 WK BEGINNING 1 WK POST CARCINOGEN TREATMENT (STUDY DURATION: 36 WK), Route [Inhibitor]: ORAL, Species: RAT, Strain/Sex: F344/MALE, Target Tissue: Type of Lesion: URINARY BLADDER: PAPILLOMA, Dose [Carcinogen]: 1000 MG/KG BW DHPN TWICE, 1500 MG/KG BW EHEN TWICE, 75 MG/KG BW 3 TIMES ADMINISTERED OVER FIRST 3 WK, Promoter: NONE USED): 0/14 (0%), 6/12 (50%), -100%, p<0.01
tumour outcome (control, treated, inhibition, significance) (Carcinogen: 2,2'-DIHYDROXY-DI-N-PROPYLNITROSAMINE, 53609-64-6, N-ETHYL-N-HYDROXYETHYLNITROSAMINE, 13147-25-6, 3,2'-DIMETHYL-4-AMINO-, Carcinogen: 2,2'-DIHYDROXY-DI-N-PROPYLNITROSAMINE, 53609-64-6, N-ETHYL-N-HYDROXYETHYLNITROSAMINE, 13147-25-6, 3,2'-DIMETHYL-4-AMINO-, Dose [Inhibitor]: 0, 2% IN DIET FOR 32 WK BEGINNING 1 WK POST CARCINOGEN TREATMENT (STUDY DURATION: 36 WK), Route [Inhibitor]: ORAL, Species: RAT, Strain/Sex: F344/RAT, Target Tissue: Type of Lesion: LARGE INTESTINE: ADENOMA, Dose [Carcinogen]: 1000 MG/KG BW DHPN TWICE, 1500 MG/KG BW EHEN TWICE, 75 MG/KG BW 3 TIMES ADMINISTERED OVER FIRST 3 WK, Promoter: NONE USED): 7/14 (50%), 5/12 (42%), 16%, not significant
tumour outcome (control, treated, inhibition, significance) (Carcinogen: 7,12-DIMETHYLBENZ(A)ANTHRACENE, 57-97-6, Dose [Inhibitor]: 0, 1 MG IN 100 µL ACETONE IMMEDIATELY AFTER CARCINOGEN DOSE 2/WK FOR 30 WK (STUDY DURATION: 30 WK), Route [Inhibitor]: DERMAL, Species: MOUSE, Strain/Sex: SWISS/FEMALE, Target Tissue: Type of Lesion: SKIN: TUMOR, Dose [Carcinogen]: 5 UG IN 100 µL ACETONE 2/WK FOR 30 WK): 8/8 (100%), 4/14 (26%), 74%, not calculated
tumour outcome (control, treated, inhibition, significance) (Carcinogen: 7,12-DIMETHYLBENZ(A)ANTHRACENE, 57-97-6, Dose [Inhibitor]: 0, 5 MG IN 100 µL ACETONE IMMEDIATELY AFTER CARCINOGEN DOSE 2/WK FOR 30 WK (STUDY DURATION: 30 WK), Route [Inhibitor]: DERMAL, Species: MOUSE, Strain/Sex: SWISS/FEMALE, Target Tissue: Type of Lesion: SKIN: TUMOR, Dose [Carcinogen]: 5 UG IN 100 µL ACETONE 2/WK FOR 30 WK): 8/8 (100%), 1/14 (6.6%), 93%, not calculated
tumour outcome (control, treated, inhibition, significance) (Carcinogen: 7,12-DIMETHYLBENZ(A)ANTHRACENE, 57-97-6, Dose [Inhibitor]: 0, 100 UG IN 100 µL ACETONE IMMEDIATELY AFTER CARCINOGEN DOSE 2/WK FOR 30 WK (STUDY DURATION: 30 WK), Route [Inhibitor]: DERMAL, Species: MOUSE, Strain/Sex: SWISS/FEMALE, Target Tissue: Type of Lesion: SKIN: TUMOR, Dose [Carcinogen]: 5 UG IN 100 µL ACETONE 2/WK FOR 30 WK): 8/8 (100%), 5/13 (40%), 60%, not calculated
tumour outcome (control, treated, inhibition, significance) (Carcinogen: 7,12-DIMETHYLBENZ[A]ANTHRACENE [57-97-6], Dose [Inhibitor]: 2% IN DIET FOR 35 WK BEGINNING 1 WK POST LAST CARCINOGEN DOSE (STUDY DURATION: 35 WK), Route [Inhibitor]: ORAL, Species: RAT, Strain/Sex: SPRAGUE-DAWLEY/FEMALE, Target Tissue: Type of Lesion: MAMMARY GLAND: CARCINOMA, Dose [Carcinogen]: 50 MG/KG BW ONCE (STUDY DURATION: 36 WK), Promoter: NONE): 14/15 (93%), 14/15 (93%), 0%, not significant
tumour outcome (control, treated, inhibition, significance) (Carcinogen: 7,12-DIMETHYLBENZ[A]ANTHRACENE [57-97-6], Dose [Inhibitor]: 2% IN DIET FOR 35 WK BEGINNING 1 WK POST LAST CARCINOGEN DOSE (STUDY DURATION: 35 WK), Route [Inhibitor]: ORAL, Species: RAT, Strain/Sex: SPRAGUE-DAWLEY/FEMALE, Target Tissue: Type of Lesion: MAMMARY GLAND: FIBROADENOMA, Dose [Carcinogen]: 50 MG/KG BW ONCE (STUDY DURATION: 36 WK), Promoter: NONE): 3/15 (20%), 4/15 (27%), -35%, not significant
